Measurements taken from patent US11987647B2, “Cyclic cell-penetrating peptides with one or more hydrophobic residues” (Ohio State Innovation Foundation, priority 2018, dated 2024).
[ ]: non-standard residue; d: D form. The star is where a group is joined. Fmoc = O=C(OCC1c2ccccc2-c2ccccc21)*; Decanoyl = CCCCCCCCCC(=O)*; Orn = NCCC[C@H](N)C(=O)O; Dap = NC[C@H](N)C(=O)O; Hexanoyl = CCCCCC(=O)*

Legend:
Type in all cases: cell-based
HeLa cells [1] = assay: Cytosolic entry efficiency of NF-labelled peptides by flow cytometry; settings: for Cellular Entry Efficiency In 10% FBS: 2 h, relative to CPP12 (100%); for CPP activity compared with CPP1-4 (in words): variant of CPP1-4; for sensitivity to serum concentration: 10% vs 1% FBS, compared with CPP9 or CPP12
Procedure: All of the peptides were labeled with naphthofluorescein (NF) at the Gln side chain through a long, flexible linker, miniPEG-Lys. HeLa cells were treated with 5 μM peptide for 2 h in the presence of 10% FBS and the cytosolic entry of the peptides was quantitated by flow cytometry analysis.
To determine cellular uptake efficiency of the CPPs disclosed herein, HeLa cells were cultured in 12-well plates (1.5×10^5 cells per well) overnight. The cells were incubated for 2 h with […] naphthofluorescein (NF)-labelled peptide in cellular media. At the end of incubation, the cells were washed with DPBS twice, detached from the plate with 0.25% trypsin, diluted into clear DMEM, pelleted at 250 g for 5 min, washed twice with DPBS, resuspended in DPBS, and analyzed on a BD FACS LSR II flow cytometer. For NF-labelled peptides, a 633-nm laser was used for excitation and the fluorescence emission was analyzed in the APC channel. Absolute cellular uptake efficiency was determined by comparing the concentration (via fluorescence intensity) of the CPP in the cytosol to the concentration in the extracellular medium. Relative cellular uptake efficiency was determined by comparing the cytosolic concentration of the CPP to that cytosolic concentration of the control CPP cyclo(FΦRRRRQ).

HeLa cells [2] = assay: as above; settings: for Cellular Entry Efficiency In 1% FBS: relative to CPP12 (100%); for cytosolic entry efficiency: reduced serum concentration (1% FBS), CPP12 most active
HeLa cells [3] = assay: Cellular entry by live-cell confocal imaging of FITC-labelled peptides; settings: 5 μM FITC-labelled peptide, 2 h
Procedure: CPP1-15 and CPP1-20 were labeled with FITC via a miniPEG-Lys linker. HeLa cells were treated with 5 μM peptide for 2 h, washed, and imaged by live-cell confocal imaging. […] Additional experiments are ongoing to further examine their mechanism of cell entry.

[4] = Table 4, 5 μM NF-labelled peptide, 10% FBS
[5] = Table 7, 5 μM NF-labelled peptide, 10% FBS

Row | Substance | Cellular Entry Efficiency In 10% FBS (HeLa cells [1]; [4]) | Cellular Entry Efficiency In 10% FBS (HeLa cells [1]; [5]) | Cellular Entry Efficiency In 1% FBS (HeLa cells [2]; Table 4, NF-labelled peptide) | Cellular Entry Efficiency In 1% FBS (HeLa cells [2]; Table 7, NF-labelled peptide) | also measured
1 | cyclo(Dap^FmocRRRRQ) (cyclo([Dap](Fmoc)RRRRQ); SMILES N=C(N)NCCC[C@@H]1NC(=O)[C@H](CCCNC(=N)N)NC(=O)[C@H](CCCNC(=N)N)NC(=O)[C@H](CNC(=O)OCC2c3ccccc3-c3ccccc32)NC(=O)[C@H](CCC(N)=O)NC(=O)[C@H](CCCNC(=N)N)NC1=O) [CPP1-7] | 17 ± 1% | 17 ± 1% | – | – | –
2 | cyclo(Dap^DecaRrRrQ) [CPP1-10] | 21 ± 9% | 21 ± 9% | 24% | 24% | CPP activity compared with CPP1-4 (in words) (HeLa cells [1]): substantially decreased the CPP activity
3 | cyclo(Asp^DecyrRrRQ) [CPP1-24] | 8.6% | 8.6% | – | – | –
4 | cyclo(Orn^DecaRRRRQ) (cyclo([Orn](Decanoyl)RRRRQ); SMILES CCCCCCCCCC(=O)NCCC[C@@H]1NC(=O)[C@H](CCC(N)=O)NC(=O)[C@H](CCCNC(=N)N)NC(=O)[C@H](CCCNC(=N)N)NC(=O)[C@H](CCCNC(=N)N)NC(=O)[C@H](CCCNC(=N)N)NC1=O) [CPP1-17] | 115 ± 32% | 115 ± 32% | 58 ± 22% | 58 ± 22% | sensitivity to serum concentration (HeLa cells [1]): lower sensitivity to serum concentration; CPP activity compared with CPP1-4 (in words) (HeLa cells [1]): slightly increased the CPP activity; cytosolic entry efficiency (HeLa cells [2]): 58%
5 | cyclo(FfΦRrRrQ) [CPP12, reference compound] | 100% | 100% | 100% | 100% | –
6 | cyclo(Asp^DecyRRRRQ) (cyclo(DRRRRQ); not fully specified (residue 1); printed as cyclo(Asp^DecyRRRRQ)) [CPP1-20] | 281 ± 59% | 281 ± 59% | 94 ± 41% | 94 ± 41% | improvement in activity (HeLa cells [1]; 10% FBS, relative to CPP1-4): ~5 fold; sensitivity to serum concentration (HeLa cells [1]): lower sensitivity to serum concentration; fold more active than CPP9 and CPP12 (HeLa cells [1]; in the presence of 10% FBS): −3 fold; cellular entry (confocal imaging) (HeLa cells [3]): entered HeLa cells efficiently; cytosolic entry efficiency (HeLa cells [2]): 94%
7 | cyclo(Lys^DecaRrRrQ) [CPP1-18] | 31% | 31% | – | – | CPP activity compared with CPP1-15 (in words) (HeLa cells [1]; stereochemical variation of CPP1-15): reduced the CPP activity
8 | cyclo(fΦRrRrQ) [CPP9, reference compound] | 94 ± 7% | 94 ± 7% | 32 ± 6% | 32 ± 6% | cytosolic entry efficiency (HeLa cells [2]): 32%
9 | cyclo(Dap^DecaRRRRRQ) (cyclo([Dap](Decanoyl)RRRRRQ); SMILES CCCCCCCCCC(=O)NC[C@@H]1NC(=O)[C@H](CCC(N)=O)NC(=O)[C@H](CCCNC(=N)N)NC(=O)[C@H](CCCNC(=N)N)NC(=O)[C@H](CCCNC(=N)N)NC(=O)[C@H](CCCNC(=N)N)NC(=O)[C@H](CCCNC(=N)N)NC1=O) [CPP1-14] | 12 ± 1% | 12 ± 1% | 21% | 21% | CPP activity compared with CPP1-4 (in words) (HeLa cells [1]): greatly decreased the CPP activity
10 | cyclo(Glu^DecyrRrRQ) [CPP1-25] | 34% | 34% | – | – | –
11 | cyclo(Dap^1-PyrenebRRRRQ) (cyclo([Dap](1‑pyrenylbutanoyl)RRRRQ)) [CPP1-8] | 24 ± 1% | 24 ± 1% | – | – | –
12 | cyclo(Dap^HexanRRRRQ) (cyclo([Dap](Hexanoyl)RRRRQ); SMILES CCCCCC(=O)NC[C@@H]1NC(=O)[C@H](CCC(N)=O)NC(=O)[C@H](CCCNC(=N)N)NC(=O)[C@H](CCCNC(=N)N)NC(=O)[C@H](CCCNC(=N)N)NC(=O)[C@H](CCCNC(=N)N)NC1=O) [CPP1-2] | 2.9 ± 0.2% | 2.9 ± 0.2% | – | – | –
13 | cyclo(Glu^DecyRrRrQ) [CPP1-23] | 1.4% | 1.4% | – | – | –
